# Results as given in ChEMBL document CHEMBL1201862, “PubChem BioAssay data set” (2004).
#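 How tested: cells in 96-well plates exposed to compound for 48 hours at five concentrations. At the GI50, growth is halved.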 Active and inactive are the calls of the source. No stated cut-off is given here; in the data, active = GI50 up to about 1.1 µM and inactive = higher.
# Assays:
# Assay in all cases: NCI-60 cell line screen, 48 h
# 786-0 = tested on: 786-0
# A549 = tested on: A549
# ACHN = tested on: ACHN
# BT-549 = tested on: BT-549
# CAKI-1 = tested on: CAKI-1
# CCRF-CEM = tested on: CCRF-CEM
# COLO 205 = tested on: COLO 205
# DU-145 = tested on: DU-145
# EKVX = tested on: EKVX
# HCC 2998 = tested on: HCC 2998
# HCT-15 = tested on: HCT-15
# HL-60 = tested on: HL-60
# HT-29 = tested on: HT-29
# Hs-578T = tested on: Hs-578T
# IGROV-1 = tested on: IGROV-1
# K562 = tested on: K562
# KM12 = tested on: KM12
# LOX IMVI = tested on: LOX IMVI
# M14 = tested on: M14
# MCF7 = tested on: MCF7
# MDA-MB-231 = tested on: MDA-MB-231
# MDA-N = tested on: MDA-N
# MOLT-4 = tested on: MOLT-4
# Malme-3M = tested on: Malme-3M
# NCI-H226 = tested on: NCI-H226
# NCI-H23 = tested on: NCI-H23
# NCI-H460 = tested on: NCI-H460
# NCI-H522 = tested on: NCI-H522
# NCI/ADR-RES = tested on: NCI/ADR-RES
# OVCAR-3 = tested on: OVCAR-3
# OVCAR-4 = tested on: OVCAR-4
# OVCAR-5 = tested on: OVCAR-5
# OVCAR-8 = tested on: OVCAR-8
# PC-3 = tested on: PC-3
# RPMI-8226 = tested on: RPMI-8226
# SF-268 = tested on: SF-268
# SF-295 = tested on: SF-295
# SF-539 = tested on: SF-539
# SK-MEL-28 = tested on: SK-MEL-28
# SK-MEL-2 = tested on: SK-MEL-2
# SK-MEL-5 = tested on: SK-MEL-5
# SK-OV-3 = tested on: SK-OV-3
# SNB-19 = tested on: SNB-19
# SNB-75 = tested on: SNB-75
# SR = tested on: SR
# SW-620 = tested on: SW-620
# T47D = tested on: T47D
# TK-10 = tested on: TK-10
# U-251 = tested on: U-251
# UACC-257 = tested on: UACC-257
# UO-31 = tested on: UO-31
# HCT-116 = tested on: HCT-116
# HOP-62 = tested on: HOP-62
# HOP-92 = tested on: HOP-92
# RXF 393 = tested on: RXF 393
# SN12C = tested on: SN12C
# UACC-62 = tested on: UACC-62
# MDA-MB-435 = tested on: MDA-MB-435
smiles,measurement,setting,value
CC(=O)O[C@H]1CC[C@H]2[C@@H]3CCc4cc(O)c(I)cc4[C@H]3CC[C@]12C,GI50,786-0,14.1 µM (inactive)
same,GI50,A549,15.3 µM (inactive)
same,GI50,ACHN,14.9 µM (inactive)
same,GI50,BT-549,14.8 µM (inactive)
same,GI50,CAKI-1,16.1 µM (inactive)
same,GI50,CCRF-CEM,> 10 µM (inactive)
same,GI50,COLO 205,18.1 µM (inactive)
same,GI50,DU-145,14.8 µM (inactive)
same,GI50,EKVX,13.1 µM (inactive)
same,GI50,HCC 2998,15 µM (inactive)
same,GI50,HCT-15,10.5 µM
same,GI50,HL-60,5.21 µM (inactive)
same,GI50,HT-29,17.7 µM (inactive)
same,GI50,Hs-578T,14.9 µM (inactive)
same,GI50,IGROV-1,16.9 µM (inactive)
same,GI50,K562,10.6 µM (inactive)
same,GI50,KM12,12 µM (inactive)
same,GI50,LOX IMVI,15.1 µM (inactive)
same,GI50,M14,13.6 µM (inactive)
same,GI50,MCF7,17 µM (inactive)
same,GI50,MDA-MB-231,3.64 µM (inactive)
same,GI50,MDA-N,15.9 µM (inactive)
same,GI50,MOLT-4,4.73 µM (inactive)
same,GI50,Malme-3M,16.9 µM (inactive)
same,GI50,NCI-H226,14.9 µM (inactive)
same,GI50,NCI-H23,12.5 µM (inactive)
same,GI50,NCI-H460,12.9 µM (inactive)
same,GI50,NCI-H522,11.8 µM (inactive)
same,GI50,NCI/ADR-RES,17.6 µM (inactive)
same,GI50,OVCAR-3,16.6 µM (inactive)
same,GI50,OVCAR-4,13.6 µM (inactive)
same,GI50,OVCAR-5,18.2 µM (inactive)
same,GI50,OVCAR-8,18.3 µM (inactive)
same,GI50,PC-3,6.12 µM (inactive)
same,GI50,RPMI-8226,12.4 µM (inactive)
same,GI50,SF-268,13.8 µM (inactive)
same,GI50,SF-295,15.3 µM (inactive)
same,GI50,SF-539,15.2 µM (inactive)
same,GI50,SK-MEL-28,15.3 µM (inactive)
same,GI50,SK-MEL-2,19 µM (inactive)
same,GI50,SK-MEL-5,3.83 µM (inactive)
same,GI50,SK-OV-3,15.7 µM (inactive)
same,GI50,SNB-19,15.8 µM (inactive)
same,GI50,SNB-75,13.4 µM (inactive)
same,GI50,SR,10.6 µM (inactive)
same,GI50,SW-620,13 µM (inactive)
same,GI50,T47D,14.7 µM (inactive)
same,GI50,TK-10,19.3 µM (inactive)
same,GI50,U-251,14.7 µM (inactive)
same,GI50,UACC-257,16.4 µM (inactive)
same,GI50,UO-31,14 µM (inactive)
Cc1ccc(S(=O)(=O)NC(=O)NC(CCCCN)C(=O)O)cc1 (configuration not stated),GI50,786-0,> 100 µM (inactive)
same,GI50,A549,> 100 µM (inactive)
same,GI50,ACHN,> 100 µM (inactive)
same,GI50,BT-549,> 100 µM (inactive)
same,GI50,CCRF-CEM,> 100 µM (inactive)
same,GI50,COLO 205,> 100 µM (inactive)
same,GI50,DU-145,> 100 µM (inactive)
same,GI50,HCT-116,> 100 µM (inactive)
same,GI50,HCT-15,> 100 µM
same,GI50,HL-60,> 100 µM (inactive)
same,GI50,HOP-62,> 100 µM (inactive)
same,GI50,HOP-92,70 µM (inactive)
same,GI50,Hs-578T,> 100 µM (inactive)
same,GI50,IGROV-1,> 100 µM (inactive)
same,GI50,K562,> 100 µM (inactive)
same,GI50,KM12,> 100 µM (inactive)
same,GI50,LOX IMVI,> 100 µM (inactive)
same,GI50,M14,> 100 µM (inactive)
same,GI50,MCF7,> 100 µM (inactive)
same,GI50,MDA-MB-231,> 100 µM (inactive)
same,GI50,MDA-N,> 100 µM (inactive)
same,GI50,MOLT-4,> 100 µM (inactive)
same,GI50,Malme-3M,> 100 µM (inactive)
same,GI50,NCI-H23,> 100 µM (inactive)
same,GI50,NCI-H460,> 100 µM (inactive)
same,GI50,NCI-H522,> 100 µM (inactive)
same,GI50,NCI/ADR-RES,> 100 µM (inactive)
same,GI50,OVCAR-4,> 100 µM (inactive)
same,GI50,OVCAR-8,> 100 µM (inactive)
same,GI50,PC-3,> 100 µM (inactive)
same,GI50,RPMI-8226,> 100 µM (inactive)
same,GI50,RXF 393,> 100 µM (inactive)
same,GI50,SF-268,> 100 µM (inactive)
same,GI50,SF-295,> 100 µM (inactive)
same,GI50,SF-539,> 100 µM (inactive)
same,GI50,SK-MEL-28,> 100 µM (inactive)
same,GI50,SK-MEL-2,> 100 µM (inactive)
same,GI50,SK-MEL-5,> 100 µM (inactive)
same,GI50,SK-OV-3,> 100 µM (inactive)
same,GI50,SN12C,> 100 µM (inactive)
same,GI50,SNB-19,> 100 µM (inactive)
same,GI50,SNB-75,> 100 µM (inactive)
same,GI50,SR,> 100 µM (inactive)
same,GI50,SW-620,> 100 µM (inactive)
same,GI50,T47D,> 100 µM (inactive)
same,GI50,TK-10,> 100 µM (inactive)
same,GI50,U-251,> 100 µM (inactive)
same,GI50,UACC-257,> 100 µM (inactive)
same,GI50,UACC-62,> 100 µM (inactive)
same,GI50,UO-31,> 100 µM (inactive)
O=C(OCCN=c1c2ccccc2ccc2ccccc12)c1ccccc1,GI50,786-0,87.7 µM (inactive)
same,GI50,A549,86.5 µM (inactive)
same,GI50,ACHN,97.1 µM (inactive)
same,GI50,BT-549,42.2 µM (inactive)
same,GI50,CAKI-1,83.4 µM (inactive)
same,GI50,CCRF-CEM,40.8 µM (inactive)
same,GI50,COLO 205,92.5 µM (inactive)
same,GI50,DU-145,> 100 µM (inactive)
same,GI50,EKVX,29.2 µM (inactive)
same,GI50,HCC 2998,72.8 µM (inactive)
same,GI50,HCT-116,42.2 µM (inactive)
same,GI50,HCT-15,63.4 µM
same,GI50,HL-60,27.3 µM (inactive)
same,GI50,HOP-62,64.6 µM (inactive)
same,GI50,HOP-92,75 µM (inactive)
same,GI50,HT-29,64 µM (inactive)
same,GI50,Hs-578T,40.3 µM (inactive)
same,GI50,IGROV-1,72.1 µM (inactive)
same,GI50,K562,38 µM (inactive)
same,GI50,KM12,86.5 µM (inactive)
same,GI50,LOX IMVI,72.1 µM (inactive)
same,GI50,M14,> 100 µM (inactive)
same,GI50,MCF7,> 100 µM (inactive)
same,GI50,MDA-MB-231,91.8 µM (inactive)
same,GI50,MDA-MB-435,> 100 µM (inactive)
same,GI50,MDA-N,> 100 µM (inactive)
same,GI50,MOLT-4,> 100 µM (inactive)
same,GI50,Malme-3M,> 100 µM (inactive)
same,GI50,NCI-H226,> 100 µM (inactive)
same,GI50,NCI-H23,> 100 µM (inactive)
same,GI50,NCI-H460,63.2 µM (inactive)
same,GI50,NCI/ADR-RES,96.4 µM (inactive)
same,GI50,OVCAR-3,> 100 µM (inactive)
same,GI50,OVCAR-4,42.3 µM (inactive)
same,GI50,OVCAR-5,> 100 µM (inactive)
same,GI50,OVCAR-8,78.7 µM (inactive)
same,GI50,PC-3,67.3 µM (inactive)
same,GI50,RPMI-8226,> 100 µM (inactive)
same,GI50,RXF 393,> 100 µM (inactive)
same,GI50,SF-268,> 100 µM (inactive)
same,GI50,SF-295,> 100 µM (inactive)
same,GI50,SF-539,50.1 µM (inactive)
same,GI50,SK-MEL-28,> 100 µM (inactive)
same,GI50,SK-MEL-2,> 100 µM (inactive)
same,GI50,SK-MEL-5,45 µM (inactive)
same,GI50,SK-OV-3,> 100 µM (inactive)
same,GI50,SN12C,64.1 µM (inactive)
same,GI50,SNB-19,40.5 µM (inactive)
same,GI50,SNB-75,> 100 µM (inactive)
same,GI50,SR,> 100 µM (inactive)
same,GI50,SW-620,74 µM (inactive)
same,GI50,TK-10,> 100 µM (inactive)
same,GI50,U-251,56.4 µM (inactive)
same,GI50,UACC-257,> 100 µM (inactive)
same,GI50,UACC-62,75 µM (inactive)
same,GI50,UO-31,56 µM (inactive)
